Data reported in the NIST ThermoML archive (doi:10.1016/j.jct.2010.09.006).

Assay: cn = amount concentration of the nth substance listed, in mol/dm3
Details: 101 kPa, Liquid, Taylor dispersion method

[Cl][Ni][Cl] [nickel chloride (NiCl2)] + O
binary diffusion coefficient [m2/s]
Details	c1 = 0	c1 = 0.001	c1 = 0.005	c1 = 0.01	c1 = 0.1
298.15 K	1.26e-09	1.23e-09	1.12e-09	1.04e-09	9.86e-10
310.15 K	1.4e-09	1.39e-09	1.37e-09	1.34e-09	1.29e-09
